Measurements from PubChem BioAssay (NCI).
Several values for one entry are separate records, joined by “and”; a condition that tells them apart may be missing. Identical values can stand only once.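 Step 1: Grow cells in 96-well plates. Step 2: Expose to compound for 48 hours at 5 concentrations. Step 3: Interpolate endpoints linearly; if unreached, use highest concentration. Abbreviation: GI50, concentration required for 50% inhibition of growth. TGI: total growth inhibition.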 *1 amine or outer side, *2 acyl side, *3 side chain or, on linkers, in order; H or OH if unused. Where a SMILES comes first, the peptide text is derived from it. [ ]: non-standard residue; d: D form. The star is where a group is joined. ξ: configuration not given here. X15 = CCN(CC)c1ccc2cc(N*)c(=O)oc2c1; dIva = CC[C@@](C)(N)C(=O)O; X14 = O=C(OCCN[*:1])[*:2]; Aib = CC(C)(N)C(=O)O; ξP = O=C(O)C1CCCN1; βAla = NCCC(=O)O

Columns and labels:
Test in all cases: NCI tumour cell line growth inhibition, 48 h
M14 melanoma = test system: M14 melanoma
OVCAR-8 ovarian = test system: OVCAR-8 ovarian
HS 578T breast = test system: HS 578T breast
786-0 renal = test system: 786-0 renal
OVCAR-3 ovarian = test system: OVCAR-3 ovarian
KM12 colon = test system: KM12 colon
UACC-62 melanoma = test system: UACC-62 melanoma
HCT-15 colon = test system: HCT-15 colon

SMILES | GI50 (M14 melanoma) [µM] | TGI (M14 melanoma) | GI50 (OVCAR-8 ovarian) [µM] | TGI (OVCAR-8 ovarian) [µM] | GI50 (HS 578T breast) [µM] | TGI (HS 578T breast) | GI50 (786-0 renal) [µM] | TGI (786-0 renal) | GI50 (OVCAR-3 ovarian) [nM] | TGI (OVCAR-3 ovarian) | GI50 (KM12 colon) [nM] | TGI (KM12 colon) [µM] | GI50 (UACC-62 melanoma) [µM] | TGI (UACC-62 melanoma) | GI50 (HCT-15 colon) [µM] | TGI (HCT-15 colon) [µM]
Cc1cn2c(/C=N/Nc3ccccn3)c(-c3ccc(Cl)c([N+](=O)[O-])c3)nc2s1 | 10.8 | 23 µM | 8.96 | 19.8 | 12 | 39.4 µM | 18.5 | > 50 µM | 11000 | 27.3 µM | 23100 | > 50 | 14.1 | 46.3 µM | 16 | > 50
O=C(c1cccnc1)c1cc(-c2ccccn2)c(=O)n2ccccc12 | > 100 | > 100 µM | > 100 | > 100 | > 100 | > 100 µM | > 100 | > 100 µM | > 100000 | > 100 µM | > 100000 | > 100 | > 100 | > 100 µM | > 100 | > 100
CCC(/C=C/c1ccccc1)=N\Nc1ccc(Cl)c(Cl)c1 | – | > 100 µM | – | 39.6 | – | > 100 µM | – | > 100 µM | – | > 100 µM | – | > 100 | – | 31.5 µM | – | > 100
FC(F)(F)c1ccc(-c2cnc(Cl)nc2NCc2cc(C(F)(F)F)cc(C(F)(F)F)c2)cc1 | 4.44 | > 100 µM | 3.48 | > 100 | 3.03 | > 100 µM | 3.67 | > 100 µM | 2790 | 9.25 µM | 3060 | > 100 | 3.34 | > 100 µM | 3.48 | > 100
CCN(CC)c1ccc(C(=N)c2ccc(N(C)C)cc2)cc1 | 0.167 | 2.06 µM | 1.94 | 6.51 | 0.19 | 2.67 µM | 1.71 | 4.45 µM | 156 | 4.07 µM | 171 | 4.05 | 1.35 | 7.03 µM | 0.17 | 7.93
CCCOc1nc(SCCC)nc2c1cnn2-c1ccccc1 | > 100 | > 100 µM | > 100 | > 100 | > 100 | > 100 µM | > 100 | > 100 µM | > 100000 | > 100 µM | 93100 | > 100 | > 100 | > 100 µM | > 100 | > 100
CN(C(=O)c1ccncc1)c1ccccc1 | – | > 100 µM | – | > 100 | – | > 100 µM | – | > 100 µM | – | > 100 µM | – | > 100 | – | > 100 µM | – | > 100
CS(=O)(=O)Nc1ccc(N=Cc2c(O)[nH]c3ccccc23)cc1 | > 25 | > 25 µM | > 25 | > 25 | > 25 | > 25 µM | > 25 | > 25 µM | > 25000 | > 25 µM | 1200 | > 25 | > 25 | > 25 µM | > 25 | > 25
CC1(C)CC[C@]2(C(=O)N3CCOCC3)CC[C@]3(C)C(=CC[C@@H]4[C@@]5(C)C/C(=C/c6ccncc6)C(=O)C(C)(C)[C@@H]5CC[C@]43C)[C@@H]2C1 | 1.41 | 5.23 µM | 3.52 | > 100 | 2.56 | > 100 µM | 1.66 | 12.4 µM | 2060 | > 100 µM | 2700 | > 100 | 1.36 | 40.9 µM | 0.939 | 11
COc1cc2c3c(n(C)c(=O)c2cc1OC)-c1cc2c(cc1/C3=C\C(N)CN)OCO2 (stereo unspecified) | 2.23 | 7.26 µM | 1.75 | 18.8 | 4.2 | 41.4 µM | 1.27 | 9.92 µM | 1920 | 6.88 µM | 2390 | 28.3 | 0.707 | 3.66 µM | 2.16 | 16.6
O=C(COc1cccc(/C=C2\COc3ccc(Cl)cc3C2=O)c1)c1ccc(Cl)cc1 | 11.6 | 24.4 µM | 15.8 | 37.5 | 18.8 | 48.7 µM | 16.1 | 29.7 µM | 7710 | 19.8 µM | 2790 | 11.2 | 11 | 23.1 µM | 12.2 | 24.7
CCCCN(CCCC)c1ccc(C(=NC(C)CCCN(CC)CC)c2ccc(N(C)C)cc2)cc1 (stereo unspecified) | 0.873 | 1.72 µM | 0.99 | 2.09 | 0.884 | 2.05 µM | 0.705 | 1.43 µM | 846 | 1.81 µM | 965 | 2.33 | 0.909 | 1.91 µM | 0.767 | 1.56
CC(C)C[C@H](NC(=O)[C@@H](O)[C@H](N)Cc1ccc([N+](=O)[O-])cc1)C(=O)O | > 25 | > 25 µM | > 25 | > 25 | > 25 | > 25 µM | > 25 | > 25 µM | 2.5 | > 25 µM | > 25000 | > 25 | > 25 | > 25 µM | > 25 | > 25
Cc1c(Cl)cccc1NC1=C(Cl)C(=O)N(Cc2ccccc2)C1=O | 10.2 | 22 µM | 9.23 | 23.8 | 10.9 | 24.8 µM | 1.9 | 11 µM | 1470 | 15.2 µM | 2170 | 14 | 6.15 | 19.7 µM | 4.37 | 18
CCN(CC)c1ccc2cc(NC(=O)OCCNC(=O)CCNC(=O)[C@H](CC(C)C)NC(=O)C(C)(C)NC(=O)C(C)(C)NC(=O)[C@H](CC(C)C)NC(=O)CCNC(=O)C(C)(C)NC(=O)[C@H](CC(C)C)NC(=O)CCNC(=O)[C@@](C)(CC)NC(=O)[C@H](C)NC(=O)CCNC(=O)C(C)(C)NC(=O)[C@H](C)NC(=O)[C@@H]3CCCN3C(=O)[C@@](C)(CC)NC(=O)[C@H](Cc3ccccc3)NC(=O)C3CCCN3C(=O)C(C)(C)NC(=O)C3CCCN3C(=O)C(C)(C)NC(C)=O)c(=O)oc2c1 (stereo partly specified) (Ac-[Aib][ξP][Aib][ξP]F[dIva]PA[Aib][βAla]A[dIva][βAla]L[Aib][βAla]L[Aib][Aib]L[βAla][X14]-X15) | 0.00838 | 0.0358 µM | 0.005 | 0.0939 | 0.0045 | 0.0548 µM | 0.0102 | 0.0319 µM | 3.38 | 0.0139 µM | 4.25 | 0.0348 | 0.00385 | 0.0189 µM | 0.135 | 0.278
Nc1n[nH]c2cccc(C#Cc3cccc(C(=O)Nc4cc(CN5CCOCC5)cc(C(F)(F)F)c4)c3)c12 | 2.13 | 8.32 µM | 4.63 | 20.6 | 2.75 | 34.1 µM | 3.97 | 15 µM | 7410 | 31.3 µM | 3430 | 14.7 | 1.99 | 8.34 µM | 3.57 | 15.2
S=C(Nc1cc(Cl)c(Cl)cc1Cl)SCc1ccccc1 | – | > 100 µM | – | 51.5 | – | > 100 µM | – | > 100 µM | – | 49.3 µM | – | 36.6 | – | > 100 µM | – | 32.6
Nc1nc(N)c(N=O)c(OCC2CCCCC2)n1 | 11.8 | > 100 µM and 52.2 µM | – | > 100 | 2.81 | 21 µM and 46.1 µM | 20.9 | > 100 µM and 84.1 µM | 7370 | 64.7 µM and 61.5 µM | – | > 100 | – | 42.6 µM and 40.7 µM | – | > 100
CSC1(SC2=NCCN2)SC2(NCCN2)S1 | – | 44.3 µM | – | 43 | – | 69.1 µM | – | 14.2 µM | – | 30.6 µM | – | 5.37 | – | 32.7 µM | – | 41.2
COc1ccc2c(c1)C(C)Cc1c(Cl)nc(C)nc1N2C (stereo unspecified) | 1.34 | 12.4 µM | 3.58 | 15.4 | 3.98 | 64.4 µM | 3.94 | 32 µM | 1400 | 4.17 µM | 789 | 11.4 | 0.665 | 36.2 µM | 1.33 | 8.05
Nc1cc(N)c2nc(-c3ccccc3)c(NCc3ccc(F)cc3)nc2c1 | 23.7 | 55.9 µM | 2.66 | 6.07 | 4.86 | > 100 µM | 23.7 | 62.2 µM | 2390 | 6.42 µM | 2820 | 7.38 | 15.4 | 29.5 µM | 3.34 | 19.1
CCCc1cc(=O)n2c(C(=O)Nc3ccccc3OC)c(C(=O)Nc3ccc(F)cc3)sc2n1 | 23.3 | 110 µM | 5.67 | 20.7 | 6.27 | 25.6 µM | 2.91 | 10.2 µM | 9560 | 34.1 µM | 49800 | > 160 | 4.24 | 22.7 µM | 72 | > 160
